From article PMC11589570, “Critical assessment of LC3/GABARAP ligands used for degrader development and ligandability of LC3/GABARAP binding pockets” (Nature Communications, 2024)
Several values for one entry are separate records, joined by “and”; a condition that tells them apart may be missing. Identical values can stand only once.

Tests used:
Test in all cases: FP assay with Cy5-labelled p62 LIR tracer (protein titration and tracer displacement)
Type in all cases: binding
[1] = molecular target: GABARAPL1 (Homo sapiens, UniProt Q9H0R8); conditions: for compound titration GABARAPL1 (displacement curve, FP signal): two replicate columns per compound; for FP tracer displacement curve signal (compound titration): duplicate values, listed as KT3
[2] = molecular target: LC3A (Homo sapiens, UniProt Q9H492); conditions: two replicate columns per compound
[3] = molecular target: GABARAP (Homo sapiens, UniProt O95166); conditions: two replicate columns per compound
[4] = molecular target: LC3B (Homo sapiens, UniProt Q9GZQ8); conditions: for normalized FP signal, p62 LIR tracer displacement: LC3B; for compound titration LC3B (displacement curve, FP signal): two replicate columns per compound
[5] = molecular target: LC3C (Homo sapiens, UniProt Q9BXW4); conditions: two replicate columns per compound
[6] = log10 concentration [M] -3.82391
[7] = log10 concentration [M] -4.1549
[8] = log10 concentration [M] -4.60206
[9] = log10 concentration [M] -5.69897
[10] = log10 concentration [M] -6.22185
[11] = log10 concentration [M] -6.69897
[12] = log10 concentration [M] -7.30103
[13] = log10 concentration [M] -7.79588
[14] = log10 concentration [M] -8.08092
[15] = log10 concentration [M] -5.30103

Chain of LC3C (Q9BXW4 1-126): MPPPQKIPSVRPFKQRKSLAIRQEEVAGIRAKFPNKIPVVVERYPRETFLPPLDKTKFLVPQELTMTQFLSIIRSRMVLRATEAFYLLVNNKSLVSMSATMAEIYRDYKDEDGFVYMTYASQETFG
Chain of GABARAP (O95166 1-116): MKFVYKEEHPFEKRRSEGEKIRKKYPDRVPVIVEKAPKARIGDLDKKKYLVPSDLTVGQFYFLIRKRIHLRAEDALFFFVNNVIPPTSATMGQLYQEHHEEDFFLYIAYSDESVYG
Chain of GABARAPL1 (Q9H0R8 whole entry): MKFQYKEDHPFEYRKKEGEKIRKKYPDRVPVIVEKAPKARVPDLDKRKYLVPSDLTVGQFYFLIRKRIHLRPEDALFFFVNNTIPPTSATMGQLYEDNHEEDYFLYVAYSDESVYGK

compound titration GABARAPL1 (displacement curve, FP signal) [1, 6]: 17.7143 and 20.8571 | compound titration GABARAPL1 (displacement curve, FP signal) [1, 7]: 50 and 53.2857 | compound titration GABARAPL1 (displacement curve, FP signal) [1, 8]: 99.5714 and 102.429 | compound titration GABARAPL1 (displacement curve, FP signal) ([1]; log10 concentration [M] -5): 98.1429 and 100.714 | FP tracer displacement curve signal (compound titration) [1, 9]: 94.7143 and 94.1429 | FP tracer displacement curve signal (compound titration) [1, 10]: 100 and 100.429 | FP tracer displacement curve signal (compound titration) [1, 11]: 100.857 and 101.429 | FP tracer displacement curve signal (compound titration) [1, 12]: 101.857 and 99.1429 | FP tracer displacement curve signal (compound titration) [1, 13]: 100 and 94.7143 | FP tracer displacement curve signal (compound titration) [1, 14]: 101.714 and 99.2857 | compound titration LC3A (displacement curve, FP signal) [2, 6]: 94.4737 and 100 | compound titration LC3A (displacement curve, FP signal) [2, 7]: 97.6316 and 101.053 | compound titration LC3A (displacement curve, FP signal) [2, 8]: 101.579 and 103.947 | compound titration LC3A (displacement curve, FP signal) ([2]; log10 concentration [M] -5): 101.842 and 104.737 | compound titration LC3A (displacement curve, FP signal) [2, 15]: 100.789 and 103.421 | compound titration LC3A (displacement curve, FP signal) [2, 9]: 102.895 and 93.1579 | compound titration LC3A (displacement curve, FP signal) [2, 10]: 105 and 102.368 | compound titration LC3A (displacement curve, FP signal) [2, 11]: 102.368 and 100 | compound titration LC3A (displacement curve, FP signal) [2, 12]: 104.211 and 92.8947 | compound titration LC3A (displacement curve, FP signal) [2, 13]: 101.579 and 94.2105 | compound titration LC3A (displacement curve, FP signal) [2, 14]: 105 and 96.5789 | compound titration GABARAP (displacement curve, FP signal) [3, 6]: 16.2069 and 14.4828 | compound titration GABARAP (displacement curve, FP signal) [3, 7]: 54.3103 and 56.3793 | compound titration GABARAP (displacement curve, FP signal) [3, 8]: 99.3103 and 96.0345 | compound titration GABARAP (displacement curve, FP signal) ([3]; log10 concentration [M] -5): 94.4828 and 101.034 | compound titration GABARAP (displacement curve, FP signal) [3, 15]: 97.931 and 100.345 | compound titration GABARAP (displacement curve, FP signal) [3, 9]: 88.6207 and 93.1034 | compound titration GABARAP (displacement curve, FP signal) [3, 10]: 93.9655 and 97.069 | compound titration GABARAP (displacement curve, FP signal) [3, 11]: 96.7241 and 100.862 | compound titration GABARAP (displacement curve, FP signal) [3, 12]: 95.5172 and 99.1379 | compound titration GABARAP (displacement curve, FP signal) [3, 13]: 95.6897 and 96.8966 | compound titration GABARAP (displacement curve, FP signal) [3, 14]: 97.7586 and 100.69 | normalized FP signal, p62 LIR tracer displacement [4, 6]: 54.7368 and 57.3684 | normalized FP signal, p62 LIR tracer displacement [4, 7]: 91.8421 and 94.4737 | normalized FP signal, p62 LIR tracer displacement [4, 8]: 99.4737 and 97.8947 | normalized FP signal, p62 LIR tracer displacement ([4]; log10 concentration [M] -5): 98.6842 and 95 | normalized FP signal, p62 LIR tracer displacement [4, 15]: 95 and 96.0526 | normalized FP signal, p62 LIR tracer displacement [4, 9]: 96.5789 and 95.2632 | normalized FP signal, p62 LIR tracer displacement [4, 10]: 93.4211 and 99.4737 | normalized FP signal, p62 LIR tracer displacement [4, 11]: 97.3684 and 96.8421 | normalized FP signal, p62 LIR tracer displacement [4, 12]: 102.368 and 100.789 | normalized FP signal, p62 LIR tracer displacement [4, 13]: 96.3158 and 98.1579 | normalized FP signal, p62 LIR tracer displacement [4, 14]: 102.632 and 92.6316 | compound titration LC3B (displacement curve, FP signal) [4, 6]: 54.7368 and 57.3684 | compound titration LC3B (displacement curve, FP signal) [4, 7]: 91.8421 and 94.4737 | compound titration LC3B (displacement curve, FP signal) [4, 8]: 99.4737 and 97.8947 | compound titration LC3B (displacement curve, FP signal) ([4]; log10 concentration [M] -5): 98.6842 and 95 | compound titration LC3B (displacement curve, FP signal) [4, 15]: 95 and 96.0526 | compound titration LC3B (displacement curve, FP signal) [4, 9]: 96.5789 and 95.2632 | compound titration LC3B (displacement curve, FP signal) [4, 10]: 93.4211 and 99.4737 | compound titration LC3B (displacement curve, FP signal) [4, 11]: 97.3684 and 96.8421 | compound titration LC3B (displacement curve, FP signal) [4, 12]: 102.368 and 100.789 | compound titration LC3B (displacement curve, FP signal) [4, 13]: 96.3158 and 98.1579 | compound titration LC3B (displacement curve, FP signal) [4, 14]: 102.632 and 92.6316 | compound titration LC3C (displacement curve, FP signal) [5, 6]: 22.4 and 20.2 | compound titration LC3C (displacement curve, FP signal) [5, 7]: 56.4 and 57.6 | compound titration LC3C (displacement curve, FP signal) [5, 8]: 96.2 and 100.8 | compound titration LC3C (displacement curve, FP signal) ([5]; log10 concentration [M] -5): 96.2 and 98.8 | compound titration LC3C (displacement curve, FP signal) [5, 15]: 97.8 and 100.6 | compound titration LC3C (displacement curve, FP signal) [5, 9]: 90 and 87.6 | compound titration LC3C (displacement curve, FP signal) [5, 10]: 95.8 and 98.8 | compound titration LC3C (displacement curve, FP signal) [5, 11]: 98.6 and 99.4 | compound titration LC3C (displacement curve, FP signal) [5, 12]: 79.6 and 99.8 | compound titration LC3C (displacement curve, FP signal) [5, 13]: 95.2 and 97.2 | compound titration LC3C (displacement curve, FP signal) [5, 14]: 99 and 100.4
Structure (SMILES): Cc1ccc(S(=O)(=O)Nc2cc(SCC(=O)O)c(O)c3ccccc23)c(C)c1 [compound 10]
